{"source": "patent US9862742B2", "about": "“Tricyclic nucleosides and oligomeric compounds prepared therefrom” (UNIVERSITAT BERN, priority 2013, dated 2018)", "key": {"[1]": {"tested_on": "complementary RNA", "test": "Tm study of oligomeric compounds duplexed with complementary RNA (UV melting)", "assay_type": "binding", "conditions": "1.2 μM, 150 mM NaCl, 10 mM phosphate, 0.1 mM EDTA, pH 7; for ΔTm/mod (° C.) vs RNA: referenced to unmodified DNA or to the fully modified tricyclo-DNA oligomer", "method": "(§1) The relative ability of a chemically-modified oligomeric compound to bind to complementary nucleic acid strands, as compared to natural oligonucleotides, is measured by obtaining the melting temperature of a hybridization complex of said chemically-modified oligomeric compound with its complementary unmodified target nucleic acid. The melting temperature (Tm), a characteristic physical property of double helixes, denotes the temperature in degrees centigrade at which 50% helical versus coiled (unhybridized) forms are present. Tm (also commonly referred to as binding affinity) is measured by using the UV spectrum to determine the formation and breakdown (melting) of hybridization. Base stacking, which occurs during hybridization, is accompanied by a reduction in UV absorption (hypochromicity). Consequently a reduction in UV absorption indicates a higher Tm. Following standard automated DNA synthesis protocols oligomeric compounds were prepared comprising one or more tricyclic nucleosides for Tm studies. After cleavage from the solid support, the oligomeric compounds were purified by ion exchange HPLC and analyzed by LCMS using standard procedures. The Tm of the modified 10 mer oligomeric compounds were compared to an unmodified 10 mer DNA oligonucleotide when duplexed to either DNA or RNA. Tm's were determined using a Cary 100 Bio spectrophotometer with the Cary Win UV thermal program was used to measure absorbance vs. temperature. For the Tm experiments, the oligomeric compounds were prepared at a concentration of 1.2 μM in a buffer of 150 mM NaCl, 10 mM phosphate, 0.1 mM EDTA at pH 7. The concentration determined at 85° C. was 1.2 μM after mixing of equal volumes of selected oligomeric compound and complementary RNA or DNA. The oligomeric compounds were hybridized with a complementary RNA or DNA by heating the duplex to 90° C. for 5 minutes and then cooling to room temperature. Tm measurements were taken using a spectrophotometer while the duplex solution was heated in a cuvette at a rate of 0.5° C./min starting at 15° C. until the temperature was 85° C. Tm values were determined using Vant Hoff calculations (A260 vs temperature curve) using non self-complementary sequences where the minimum absorbance related to the duplex and the maximum absorbance related to the non-duplex single strand are manually integrated into the program."}, "[2]": {"tested_on": "complementary DNA", "test": "Tm study of oligomeric compounds duplexed with complementary DNA (UV melting)", "assay_type": "binding", "conditions": "1.2 μM, 150 mM NaCl, 10 mM phosphate, 0.1 mM EDTA, pH 7; for ΔTm/mod (° C.) vs DNA: referenced to unmodified DNA or to the fully modified tricyclo-DNA oligomer", "method": "as §1"}, "[3]": {"tested_on": "exon 23 of the mouse dystrophin gene", "test": "Exon 23 skipping in primary mdx cells, gymnotic delivery, RT-PCR/nested PCR and gel electrophoresis", "assay_type": "cell-based", "conditions": "for exon skipping (exon 23, gel of nested PCR products): 50 μg (approx 9 nmol) oligonucleotide, no transfection agent (gymnosis), harvested 4 days after transfection", "text": "The mdx mouse represents a model for the human genetic disease Duchenne muscular dystrophy. It contains a mutation in exon 23 of the mouse dystrophin gene which gives rise to a premature stop codon. As a consequence no functional dystrophin mRNA and dystrophin protein is produced. It is known in the field (Lu et al., Proc Natl Acad Sci USA 2005, 102, 198-203) that administration of an antisense oligonucleotide designed to bind to the exon/intron junction of exon 23 leads to skipping of exon 23 during mRNA splicing and thus to a functional variant of the mouse dystrophin protein.\nTo test the exon skipping potential of A20-A23, mdx primary cells (mdx mouse) were transfected without transfection agents (gymnosis) with 50 μg (approx 9 nmol) of each oligonucleotide A20 to A23. Cells were harvested 4 days after transfection and the RNA was extracted. RT-PCR and nested PCR around exon 23 (EX20F/Ex26R) was performed and the products analyzed by gel electrophoresis (FIG. 1).\nThe slower moving band correspond to nonskipped RNA (including […]) while the faster moving band corresponds to skipped ([…] excluded) RNA."}}, "note": "Oligonucleotides are written 5' to 3', each unit as a sugar letter and its base; * is a phosphorothioate linkage, no mark a phosphodiester; rarer units and linkages stand in square brackets, end groups in braces. Plain capitals give the bases only. [6'F-TC-N] = 6'-fluorinated tricyclic nucleoside, subtype b of the publication (N: the base); [F-tcDNA] = 6'-fluoro tricyclic (tricyclo-DNA) nucleoside; [tcDNA-N] = tricyclo-DNA nucleoside (N: the base); [tcDNA] = tricyclo-DNA nucleoside; d = 2'-deoxy (DNA); {P} = phosphate"}
{"substance": "01 (AACTGTCACG; unmodified DNA) [compound 01]", "values": [{"measurement": "ΔTm/mod (° C.) vs RNA", "setting": "[1]", "result": 0, "unit": "°C"}, {"measurement": "ΔTm/mod (° C.) vs DNA", "setting": "[2]", "result": 0, "unit": "°C"}]}
{"substance": "02 (AACTGTCACG; sugars from the 5' end d5 [tcDNA]1 d4, all phosphodiester, methylation of C not given here) [compound 02]", "values": [{"measurement": "ΔTm/mod (° C.) vs RNA", "setting": "[1]", "result": "+0.9 °C"}, {"measurement": "ΔTm/mod (° C.) vs DNA", "setting": "[2]", "result": "+2.1 °C"}]}
{"substance": "03 (dAdAdCdTdG[6'F-TC-T]dCdAdCdG) [compound 03]", "values": [{"measurement": "ΔTm/mod (° C.) vs RNA", "setting": "[1]", "result": "+0.4 °C"}, {"measurement": "ΔTm/mod (° C.) vs DNA", "setting": "[2]", "result": "+2.0 °C"}]}
{"substance": "04 (dAdAdC[6'F-TC-T]dGdTdCdAdCdG) [compound 04]", "values": [{"measurement": "ΔTm/mod (° C.) vs RNA", "setting": "[1]", "result": "+0.7 °C"}, {"measurement": "ΔTm/mod (° C.) vs DNA", "setting": "[2]", "result": "+1.6 °C"}]}
{"substance": "05 (dAdAdC[6'F-TC-T]dG[6'F-TC-T]dCdAdCdG) [compound 05]", "values": [{"measurement": "ΔTm/mod (° C.) vs RNA", "setting": "[1]", "result": 0, "unit": "°C"}, {"measurement": "ΔTm/mod (° C.) vs DNA", "setting": "[2]", "result": 0, "unit": "°C"}]}
{"substance": "06 (pA_{a}A_{a}C_{a}T_{a}G_{a}T_{a}C_{a}A_{a}C_{a}G_{a}; fully modified with subtype a nucleosides (not given here), 5'-phosphate, phosphodiester, as printed in the source, key not given here) [compound 06]", "values": [{"measurement": "ΔTm/mod (° C.) vs RNA", "setting": "[1]", "result": 0, "unit": "°C"}, {"measurement": "ΔTm/mod (° C.) vs DNA", "setting": "[2]", "result": 0, "unit": "°C"}]}
{"substance": "07 (pA_{a}A_{a}C_{a}T_{a}G_{a}T_{b}C_{a}A_{a}C_{a}G_{a}; as printed in the source, key not given here) [compound 07]", "values": [{"measurement": "ΔTm/mod (° C.) vs RNA", "setting": "[1]", "result": "+0.7 °C"}, {"measurement": "ΔTm/mod (° C.) vs DNA", "setting": "[2]", "result": 0, "unit": "°C"}]}
{"substance": "08 (pA_{a}A_{a}C_{a}T_{b}G_{a}T_{a}C_{a}A_{a}C_{a}G_{a}; as printed in the source, key not given here) [compound 08]", "values": [{"measurement": "ΔTm/mod (° C.) vs RNA", "setting": "[1]", "result": "+0.3 °C"}, {"measurement": "ΔTm/mod (° C.) vs DNA", "setting": "[2]", "result": "−1.6", "unit": "°C"}]}
{"substance": "09 (pA_{a}A_{a}C_{a}T_{b}G_{a}T_{b}C_{a}A_{a}C_{a}G_{a}; as printed in the source, key not given here) [compound 09]", "values": [{"measurement": "ΔTm/mod (° C.) vs RNA", "setting": "[1]", "result": "−0.2", "unit": "°C"}, {"measurement": "ΔTm/mod (° C.) vs DNA", "setting": "[2]", "result": "−1.8", "unit": "°C"}]}
{"substance": "10 (AACTGT_{c}CACG; as printed in the source, key not given here) [compound 10]", "values": [{"measurement": "ΔTm/mod (° C.) vs RNA", "setting": "[1]", "result": "+0.9 °C"}, {"measurement": "ΔTm/mod (° C.) vs DNA", "setting": "[2]", "result": "+1.8 °C"}]}
{"substance": "12 (AACT_{c}GT_{c}CACG; as printed in the source, key not given here) [compound 12]", "values": [{"measurement": "ΔTm/mod (° C.) vs RNA", "setting": "[1]", "result": "+2.8 °C"}, {"measurement": "ΔTm/mod (° C.) vs DNA", "setting": "[2]", "result": "+1.8 °C"}]}
{"substance": "13 (AACTGT_{d}CACG; as printed in the source, key not given here) [compound 13]", "values": [{"measurement": "ΔTm/mod (° C.) vs RNA", "setting": "[1]", "result": "−4.7", "unit": "°C"}, {"measurement": "ΔTm/mod (° C.) vs DNA", "setting": "[2]", "result": "−4.5", "unit": "°C"}]}
{"substance": "14 (AACT_{d}GTCACG; as printed in the source, key not given here) [compound 14]", "values": [{"measurement": "ΔTm/mod (° C.) vs RNA", "setting": "[1]", "result": "−2.5", "unit": "°C"}, {"measurement": "ΔTm/mod (° C.) vs DNA", "setting": "[2]", "result": "−2.7", "unit": "°C"}]}
{"substance": "15 (AACT_{d}GT_{d}CACG; as printed in the source, key not given here) [compound 15]", "values": [{"measurement": "ΔTm/mod (° C.) vs RNA", "setting": "[1]", "result": "−3.0", "unit": "°C"}, {"measurement": "ΔTm/mod (° C.) vs DNA", "setting": "[2]", "result": "−4.3", "unit": "°C"}]}
{"substance": "16 (GCATTTTTACCG; unmodified DNA) [compound 16]", "values": [{"measurement": "ΔTm/mod (° C.) vs RNA", "setting": "[1]", "result": 0, "unit": "°C"}, {"measurement": "ΔTm/mod (° C.) vs DNA", "setting": "[2]", "result": 0, "unit": "°C"}]}
{"substance": "17 (GCAT_{d}T_{d}T_{d}T_{d}T_{d}ACCG; as printed in the source, key not given here) [compound 17]", "values": [{"measurement": "ΔTm/mod (° C.) vs RNA", "setting": "[1]", "result": "+0.6 °C"}, {"measurement": "ΔTm/mod (° C.) vs DNA", "setting": "[2]", "result": -1.1, "unit": "°C"}]}
{"substance": "SEQ ID NO. 01: unmodified 10 mer DNA oligonucleotide AACTGTCACG, phosphodiester (unmodified DNA) [reference compound]", "values": [{"measurement": "Tm duplexed with RNA", "setting": "[1]", "result": 45.1, "unit": "°C"}, {"measurement": "Tm duplexed with DNA", "setting": "[2]", "result": 43.5, "unit": "°C"}]}
{"substance": "SEQ ID NO. 06: pAaAaCaTaGaTaCaAaCaGa, fully modified tricyclo-DNA, 5′-phosphorylated (AACTGTCACG; all [tcDNA-N], all phosphodiester, 5' {P}, methylation of C not given here) [reference compound]", "values": [{"measurement": "Tm duplexed with RNA", "setting": "[1]", "result": 66.2, "unit": "°C"}, {"measurement": "Tm duplexed with DNA", "setting": "[2]", "result": 55.0, "unit": "°C"}]}
{"substance": "SEQ ID NO. 07: pAaAaCaTaGaTbCaAaCaGa, tricyclo-DNA backbone with one 6′-fluoro residue, 5′-phosphorylated (AACTGTCACG; sugars from the 5' end [tcDNA]5 [F-tcDNA]1 [tcDNA]4, all phosphodiester, 5' {P}, methylation of C not given here)", "values": [{"measurement": "ΔTm/mod (° C.) vs RNA", "setting": "[1]", "result": "up to +0.7 °C"}]}
{"substance": "SEQ ID NO. 16: unmodified oligonucleotide GCATTTTTACCG (unmodified DNA) [reference compound]", "values": [{"measurement": "Tm duplexed with RNA", "setting": "[1]", "result": 42.2, "unit": "°C"}, {"measurement": "Tm duplexed with DNA", "setting": "[2]", "result": 45.6, "unit": "°C"}]}
{"substance": "SEQ ID NO. 17: GCATdTdTdTdTdACCG, 5 consecutive arabinofluoro residues (GCATTTTTACCG; listed as DNA, chemistry not fully specified)", "values": [{"measurement": "ΔTm/mod (° C.) vs RNA", "setting": "[1]", "result": "+0.6 °C"}]}
{"substance": "SEQ ID NO. 19: pAaAaCaCaTaCaGaGaCaTaTaAaCaCaTa, 15-mer tricyclo-DNA, PS linkages, 5′-phosphate, no fluorine substituents ({P}-[tcDNA-A]*[tcDNA-A]*[tcDNA-C]*[tcDNA-C]*[tcDNA-T]*[tcDNA-C]*[tcDNA-G]*[tcDNA-G]*[tcDNA-C]*[tcDNA-T]*[tcDNA-T]*[tcDNA-A]*[tcDNA-C]*[tcDNA-C]*[tcDNA-T]) [reference compound]", "values": [{"measurement": "exon skipping (exon 23, gel of nested PCR products)", "setting": "[3]", "result": "substantial exon skipping"}]}
{"substance": "SEQ ID NO. 21: pAaAaCbCbTbCbGaGaCbTbTbAaCbCbTb, fluoro-oligonucleotide 15-mer, PS linkages, 5′-phosphate, C is 5-methylcytosine (AACCTCGGCTTACCT; fluoro tricyclo-DNA, PS, 5′-phosphate, 5-methylcytosine; Sequence for biophysical analysis; (1)..(1) tricyclic nucleoside according to fomula I with T1 being phosphate, T2 being phosphorothioate, Bx being adenine and the other substituents being hydrogen; (2)..(2) tricyclic nucleoside according to fomula I with T1 and T2 being phosphorothioate, Bx being adenine and the other substituents being hydrogen; (3)..(3) tricyclic nucleoside according to fomula)", "values": [{"measurement": "exon skipping (exon 23, gel of nested PCR products)", "setting": "[3]", "result": "substantial exon skipping"}, {"measurement": "exon skipping, qualitative comparison with A21", "setting": "[3]; 50 μg, gymnosis, 4 days", "result": "slightly superior compared to A21"}]}
